Experimental findings from paper PMC6864781, “Synthesis, Antitumor Activity, and Docking Analysis of New Pyrido[3′,2′:4,5]furo(thieno)[3,2-d]pyrimidin-8-amines” (Molecules, 2019) are described below.

Structures are written as SMILES. ≈ marks a conversion by molar mass, not a printed value. Entries after “also recorded” stand apart in the source; their conditions may differ.

What all share (type): cell-based
Assay [1] deals with DNA of tumor sarcoma 180 (S-180). As to the kind of experiment: Influence on methylation of DNA of tumor sarcoma 180 in vitro (5-MC content). The conditions noted are these: 3 × 10^−6 M compound, 24 h at 37 °C; for inhibition at 3 µM: reduction of 5-MC content vs S-180 control, read-out: Inhibition of the Level of DNA Methylation; for Content of Bases in DNA, 5-MC ± ζ: tumor homogenate, S-180 control 0.64 ± 0.02, seven determinations; for Effect on tumor DNA methylation (in words): S-180. As for the experimental part:
It is known that DNA methylation in cancer plays a variety of roles, helping to change the healthy regulation of gene expression to a disease pattern. DNA hypermethylation in neoplasia is a specific epigenetic sign that can guide the diagnosis and treatment of this disease. We studied the effect of synthesized substances on tumor DNA in vitro. After the incubation of tumor cells with the studied compounds, the isolated DNA was hydrolyzed to nitrogen bases. In the studied DNA, the nucleotide composition (guanine (G), cytosine (C), 5-methylcitosine (5-MC), adenine (A), thymine (T)) complied with the rules of Chargaff. Isolated DNA belonged to the AT type, and the amount of basic bases (G + C + 5-MC) within them was 42.24–44.64 mol %, which is typical for eukaryotic DNA. Almost the same content of basic bases (G, C, A, and T) was observed, while a clear difference between DNA samples was found only in relation to the content of 5-MC, which indicated the demethylating ability of the compounds.
The influence of synthesized compounds on the methylation of DNA of tumor sarcoma 180 (S-180) was studied in vitro. Transplanted S-180 was isolated from animals after slaughter by decapitation under ether narcosis. A 3 × 10^−6 M solution of compounds (solvent: carboxymethylcellulose) was added to the tumor homogenate (12.5 mL of a solution per 10 g of tumor), and the mixture was incubated for 24 h at 37 °C. After the incubation, tumor DNA was extracted using the phenol–chloroform method. Hydrolysis to the nitrogen bases was carried out in sealed glass ampoules in 85% formic acid at 176 °C for 1 h (0.1 mL of acid per 1 mg of DNA). The separation of nitrogen bases (guanine (G), cytosine (C), 5-methylcitosine (5-MC), adenine (A), and thymine (T)) was produced by thin-layer chromatography in the solvent n-butanol/water/ammonia. Spectrophotometry of the eluates of all bases was made against eluates from the respective control areas of the chromatograms. In our studies, the well-known antitumor drug doxorubicin (manufactured by EBEWE Pharma Ges.m.b.H. Nfg. KG, 4866 Unterach, Austria) was used as a standard preparation. The data were statistically processed using Student’s and Fischer’s tests (p < 0.05).

For assay [2], the system named is HeLa cells. Nature of the assay: Cell viability (MTT) assay, HeLa. The conditions noted are these: Homo sapiens, 72 h, read-out: IC50, antiproliferative activity. The method, then:
(§1) Vero and HeLa cells were seeded in a 96-well culture plate at a density of 20,000 cells/well. The plates were preincubated in a 5% CO2/95% air-humidified atmosphere at 37 °C for 24 h to allow for adaptation of the cells prior to the addition of the test compounds. All compounds were dissolved in dimethyl sulfoxide (DMSO) prior to dilution (1 mg/mL stock solution). The 50% inhibitory concentration (IC50) was determined over a range of concentrations (0.5 μg/mL to 10 μg/mL). All cells were incubated for 72 h, and then cell viability was estimated using an MTT (3-(4,5-dimethylthiazol-2-yl)-2,5-diphenyltetrazolium bromide) assay, as previously described. Colorimetric measurements were performed on a microplate reader at 570 nm (Tecan Spectra II, Switzerland). The percentage of viable cells was calculated for each concentration as ((ODT/ODC) × 100), where ODT and ODC corresponded to the absorbance of the treated and control cells, respectively. The IC50 was calculated by using linear regression analysis.

Assay [3] deals with Vero cells. As to the kind of experiment: Cell viability (MTT) assay, Vero. The conditions noted are these: Chlorocebus sabaeus, Vero (normal cells), 72 h, read-out: IC50, antiproliferative activity. The method, then: as §1

A word on the inhibition: it is how much of the control response was suppressed. The term IC50 denotes the midpoint of a concentration-inhibition curve. Turning to `CC1CCN(c2ncnc3c2sc2nc(-c4ccco4)c4c(c23)CCCC4)CC1` [Compound 5b, 5-(2-Furyl)-8-(4-methylpiperidin-1-yl)-1,2,3,4-tetrahydropyrimido[4′,5′:4,5]thieno[2,3-c]isoquinoline], in assay [1], the inhibition at 3 µM is 60.9% and the “Content of Bases in DNA, 5-MC ± ζ” value turned out to be 0.25 ± 0.02 mol %. The IC50 in assay [2] turned out to be 8.4 ± 0.2 µg/mL (≈ 20.8 µM). Besides, the concentration for half-maximal inhibition (IC50) in assay [3] amounted to 16.8 ± 0.6 µg/mL (≈ 41.5 µM).

As to `CC(C)c1nc2oc3c(NCCCN(C)C)ncnc3c2c2c1COC(C)(C)C2` [Compound 7i], in assay [1], the “Effect on tumor DNA methylation (in words)” value is “did not affect DNA methylation; also recorded: loss of activity”.

On to `c1coc(-c2nc3sc4c(N5CCCCC5)ncnc4c3c3c2CCCC3)c1` [Compound 5a, 5-(2-Furyl)-8-piperidin-1-yl-1,2,3,4-tetrahydropyrimido[4′,5′:4,5]thieno[2,3-c]isoquinoline], for which, in assay [1], the inhibition at 3 µM worked out at 40.6% and the “Content of Bases in DNA, 5-MC ± ζ” value amounted to 0.38 ± 0.02 mol %.

`CC(C)Cc1nc2oc3c(NCCO)ncnc3c2c2c1COC(C)(C)C2` [Compound 7j, 2-[(5-Isobutyl-2,2-dimethyl-1,4-dihydro-2H-pyrano[4″,3″:4′,5′]pyrido[3′,2′:4,5]furo[3,2-d]pyrimidin-8-yl)amino]ethanol]: the “Effect on tumor DNA methylation (in words)” value in assay [1] is listed as “did not affect DNA methylation; also recorded: no activity”.

`CC(C)c1nc2oc3c(NCc4ccco4)ncnc3c2c2c1COC(C)(C)C2` [Compound 7g, N-(2-Furylmethyl)-5-isopropyl-2,2-dimethyl-1,4-dihydro-2H-pyrano[4″,3″:4′,5′]pyrido[3′,2′:4,5]furo[3,2-d]pyrimidin-8-amine]: in assay [1], the inhibition at 3 µM is 40.6% and the “Content of Bases in DNA, 5-MC ± ζ” value is listed as 0.38 ± 0.02 mol %.

As for `CC(C)c1nc2sc3c(NCC4CCCO4)ncnc3c2c2c1COC(C)(C)C2` (stereo not shown) [Compound 7m, 5-Isopropyl-2,2-dimethyl-N-(tetrahydrofuran-2-ylmethyl)-1,4-dihydro-2H-pyrano[4″,3″:4′,5′]pyrido[3′,2′:4,5]thieno[3,2-d]pyrimidin-8-amine], in assay [1], the inhibition at 3 µM came out at 37.5% and the “Content of Bases in DNA, 5-MC ± ζ” value is reported as 0.40 ± 0.02 mol %.

Regarding `COc1cccc2c1C(=O)c1c(O)c3c(c(O)c1C2=O)C[C@@](O)(C(=O)CO)C[C@@H]3O[C@H]1C[C@H](N)[C@H](O)[C@H](C)O1` [Doxorubicin, doxorubicin, reference compound], in assay [1], the inhibition at 3 µM was 67.2% and the “Content of Bases in DNA, 5-MC ± ζ” value is listed as 0.21 ± 0.01 mol %.

Regarding `CC(C)c1nc2oc3c(NCCN4CCOCC4)ncnc3c2c2c1COC(C)(C)C2` [Compound 7d], in assay [1], the inhibition at 3 µM was found to be 48.4% and the “Content of Bases in DNA, 5-MC ± ζ” value worked out at 0.33 ± 0.01 mol %.

`CCN(CC)CCNc1ncnc2c1sc1nc(-c3ccco3)c3c(c12)CCCC3` [Compound 5e, N,N-Diethyl-N′-[5-(2-furyl)-1,2,3,4-tetrahydropyrimido[4′,5′:4,5]thieno[2,3-c]isoquinolin-8-yl]ethane-1,2-diamine]: in assay [1], the inhibition at 3 µM came out at 28.1% and the “Content of Bases in DNA, 5-MC ± ζ” value is recorded as 0.46 ± 0.02 mol %.

In the case of `COc1ccc(CCNc2ncnc3c2oc2nc(C(C)C)c4c(c23)CC(C)(C)OC4)cc1OC` [Compound 7e, N-[2-(3,4-Dimethoxyphenyl)ethyl]-5-isopropyl-2,2-dimethyl-1,4-dihydro-2H-pyrano[4″,3″:4′,5′]pyrido[3′,2′:4,5]furo[3,2-d]pyrimidin-8-amine], in assay [1], the inhibition at 3 µM was 56.2% and the “Content of Bases in DNA, 5-MC ± ζ” value came out at 0.28 ± 0.01 mol %.

In the case of `CC(C)Cc1nc2oc3c(NCCCO)ncnc3c2c2c1COC(C)(C)C2` [Compound 7k], in assay [1], the inhibition at 3 µM is 18.8% and the “Content of Bases in DNA, 5-MC ± ζ” value came to 0.52 ± 0.01 mol %.

For `CC(C)c1nc2oc3c(NCC4CCCO4)ncnc3c2c2c1COC(C)(C)C2` (stereo not shown) [Compound 7f, 5-Isopropyl-2,2-dimethyl-N-(tetrahydrofuran-2-ylmethyl)-1,4-dihydro-2H-pyrano[4″,3″:4′,5′]pyrido[3′,2′:4,5]furo[3,2-d]pyrimidin-8-amine], in assay [1], the inhibition at 3 µM was 21.9% and the “Content of Bases in DNA, 5-MC ± ζ” value worked out at 0.50 ± 0.02 mol %.

`CCOC(=O)N1CCN(c2ncnc3c2sc2nc(C(C)C)c4c(c23)CC(C)(C)OC4)CC1` [Compound 7l, Ethyl 4-(5-isopropyl-2,2-dimethyl-1,4-dihydro-2H-pyrano[4″,3″:4′,5′]pyrido[3′,2′:4,5]thieno[3,2-d]pyrimidin-8-yl)piperazine-1-carboxylate]: in assay [1], the inhibition at 3 µM is 29.7% and the “Content of Bases in DNA, 5-MC ± ζ” value came out at 0.45 ± 0.03 mol %.

Turning to `CC(C)c1nc2oc3c(NCc4cccnc4)ncnc3c2c2c1COC(C)(C)C2` [Compound 7h], in assay [1], the inhibition at 3 µM turned out to be 34.4% and the “Content of Bases in DNA, 5-MC ± ζ” value worked out at 0.42 ± 0.02 mol %.

Regarding `CC(C)c1nc2oc3c(NCCO)ncnc3c2c2c1COC(C)(C)C2` [Compound 7a], in assay [1], the “Content of Bases in DNA, 5-MC ± ζ” value worked out at 0.85 ± 0.03 mol %.

Take `CC(C)c1nc2oc3c(NCCN(C)C)ncnc3c2c2c1COC(C)(C)C2` [Compound 7b]: in assay [1], the inhibition at 3 µM is 62.5% and the “Content of Bases in DNA, 5-MC ± ζ” value was determined as 0.24 ± 0.01 mol %. The IC50 in assay [2] is 5.4 ± 0.2 µg/mL (≈ 14.1 µM). Besides, the IC50 in assay [3] stood at 13.7 ± 0.4 µg/mL (≈ 35.7 µM).

As to `c1coc(-c2nc3sc4c(NCC5CCCO5)ncnc4c3c3c2CCCC3)c1` (stereo not shown) [Compound 5f, 5-(2-Furyl)-N-(tetrahydrofuran-2-ylmethyl)-1,2,3,4-tetrahydropyrimido[4′,5′:4,5]thieno[2,3-c]isoquinolin-8-amine], in assay [1], the inhibition at 3 µM is 89.1% and the “Content of Bases in DNA, 5-MC ± ζ” value amounted to 0.07 ± 0.02 mol %. Besides, the IC50 in assay [2] was 4.4 ± 0.3 µg/mL (≈ 10.8 µM). For the same molecule, in assay [3], the IC50 is 6.4 ± 0.4 µg/mL (≈ 15.7 µM).

For the molecule `c1coc(-c2nc3sc4c(N5CCOCC5)ncnc4c3c3c2CCCC3)c1` [Compound 5c, 5-(2-Furyl)-8-morpholin-4-yl-1,2,3,4-tetrahydropyrimido[4′,5′:4,5]thieno[2,3-c]isoquinoline], in assay [1], the inhibition at 3 µM turned out to be 23% and the “Content of Bases in DNA, 5-MC ± ζ” value was 0.49 ± 0.02 mol %.

Turning to `CC(C)CNc1ncnc2c1sc1nc(-c3ccco3)c3c(c12)CCCC3` [Compound 5d, 5-(2-Furyl)-N-isobutyl-1,2,3,4-tetrahydropyrimido[4′,5′:4,5]thieno[2,3-c]isoquinolin-8-amine], in assay [1], the inhibition at 3 µM stood at 34.4% and the “Content of Bases in DNA, 5-MC ± ζ” value turned out to be 0.42 ± 0.03 mol %.

`CCN(CC)CCNc1ncnc2c1oc1nc(C(C)C)c3c(c12)CC(C)(C)OC3` [Compound 7c, N,N-Diethyl-N′-(5-isopropyl-2,2-dimethyl-1,4-dihydro-2H-pyrano[4″,3″:4′,5′]pyrido[3′,2′:4,5]furo[3,2-d]pyrimidin-8-yl)ethane-1,2-diamine]: in assay [1], the inhibition at 3 µM worked out at 42.2% and the “Content of Bases in DNA, 5-MC ± ζ” value was determined as 0.37 ± 0.01 mol %.
